Patent US10633407B2, “14-membered ketolides and methods of their preparation and use” (President and Fellows of Harvard College, priority 2014, dated 2020)
≈ marks a conversion by molar mass, not a printed value.

Legend:
Assay in all cases: CLSI broth dilution MIC determination
Format in all cases: cell-based
[1] = tested on: P. aeruginosa MP-8 PAO1:mex (mex-oprM-deletion); conditions: Pseudomonas aeruginosa, PAO1
[2] = tested on: K. pneumoniae MP-548 clinical; conditions: Klebsiella pneumoniae, MP548CLINICAL, read-out: MIC
K. pneumoniae ATCC 10031 = conditions: Klebsiella pneumoniae, ATCC10031, K. pneumoniae ATCC 10031 (MP-14); read-out: MIC
[3] = tested on: S. aureus MP-17 ATCCBAA-977 (BAA 977 iErm); conditions: Staphylococcus aureus; S. aureus MP-17, ATCCBAA-977, iErm; read-out: MIC
How it was run: (§1)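 CLSI broth-dilution MIC. Controls: azithromycin, solithromycin (many cases). Macrolide-resistance genotypes constitutive or inducible.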

E. coli MP-541 clinical = conditions: Escherichia coli, MP541CLINICAL, read-out: MIC
How it was run: as §1

S. aureus ATCC 29213 = conditions: Staphylococcus aureus, ATCC29213; S. aureus ATCC 29213 (MP-12); read-out: MIC
How it was run: as §1

[4] = tested on: S. aureus (MRSA) MP-513 ST-228 cErm (Clinical-cErm); conditions: Staphylococcus aureus, read-out: MIC
How it was run: as §1

E. coli ATCC 25922 = conditions: Escherichia coli, ATCC25922, E. coli ATCC 25922 (MP-4); read-out: MIC
How it was run: as §1

[5] = tested on: E. coli MP-532 clinical-cErmB; conditions: Escherichia coli
How it was run: as §1

[6] = tested on: E. coli MP-9 ATCC25922:tolC; conditions: Escherichia coli, ATCC25922
How it was run: as §1

S. aureus MRSA: USA300 = conditions: Staphylococcus aureus; S. aureus MRSA: USA300 (MP-549, msr(a)); read-out: MIC
How it was run: as §1

[7] = tested on: A. baumannii MP-576 Clinical-MDR; conditions: Acinetobacter baumannii, read-out: MIC
P. aeruginosa ATCC 27853 = conditions: Pseudomonas aeruginosa, ATCC27853; P. aeruginosa ATCC 27853 (MP-3); read-out: MIC
A. baumannii ATCC 19606 = conditions: Acinetobacter baumannii, ATCC19606; A. baumannii ATCC 19606 (MP-15); read-out: MIC
[8] = tested on: A. baumannii MP-577 Clinical-AZT low; conditions: Acinetobacter baumannii, read-out: MIC
P. aeruginosa MP-7 PAO1 = conditions: Pseudomonas aeruginosa, read-out: MIC
[9] = tested on: K. pneumoniae MP-546 Clinical-MDR; conditions: Klebsiella pneumoniae, read-out: MIC

| Compound | MIC [1] [µg/mL] | MIC [2] [µg/mL] | MIC (K. pneumoniae ATCC 10031) [µg/mL] | MIC [3] [µg/mL] | MIC (E. coli MP-541 clinical) [µg/mL] | MIC (S. aureus ATCC 29213) [µg/mL] | MIC [4] [µg/mL] | MIC (E. coli ATCC 25922) [µg/mL] | MIC [5] [µg/mL] | MIC [6] [µg/mL] | MIC (S. aureus MRSA: USA300) [µg/mL] | MIC [7] [µg/mL] | MIC (P. aeruginosa ATCC 27853) [µg/mL] | MIC (A. baumannii ATCC 19606) [µg/mL] | MIC [8] [µg/mL] | MIC (P. aeruginosa MP-7 PAO1) [µg/mL] | MIC [9] [µg/mL] |
| --- | --- | --- | --- | --- | --- | --- | --- | --- | --- | --- | --- | --- | --- | --- | --- | --- | --- |
| CC[C@H]1OC(=O)[C@@](C)(F)C(=O)[C@H](C)[C@@H](O[C@@H]2OC(C)CC(N(C)C)C2O)[C@](C)(OC)C[C@@H](C)C(=O)[C@H](C)[C@H]2N(CC#CCn3cc(-c4ncccn4)nn3)C(=O)O[C@]12C (stereo partly shown) [FSM-22741] | 8 (≈ 9.66 µM) | 64 (≈ 77.3 µM) | 4 (≈ 4.83 µM) | 0.125 (≈ 0.151 µM) | 32 (≈ 38.6 µM) | 0.125 (≈ 0.151 µM) | > 64 | 16 (≈ 19.3 µM) | > 64 | 4 (≈ 4.83 µM) | 0.25 (≈ 0.302 µM) | > 64 | > 64 | 8 (≈ 9.66 µM) | 32 (≈ 38.6 µM) | > 64 | > 64 |
| CC[C@H]1OC(=O)[C@@](C)(F)C(=O)[C@H](C)[C@@H](O[C@@H]2OC(C)CC(N(C)C)C2O)[C@](C)(OC)C[C@@H](C)C(=O)[C@H](C)[C@H]2N(CC#CCn3cc(-c4cc(F)nc(F)n4)nn3)C(=O)O[C@]12C (stereo partly shown) [FSM-22750] | > 64 | > 64 | > 64 | 8 (≈ 9.26 µM) | > 64 | 4 (≈ 4.63 µM) | > 64 | > 64 | > 64 | > 64 | 8 (≈ 9.26 µM) | > 64 | > 64 | > 64 | > 64 | > 64 | > 64 |
| CC[C@H]1OC(=O)[C@@](C)(F)C(=O)[C@H](C)[C@@H](O[C@@H]2OC(C)CC(N(C)C)C2O)[C@](C)(OC)C[C@@H](C)C(=O)[C@H](C)[C@H]2N(CC#CCn3cc(-c4cc(N)ncn4)nn3)C(=O)O[C@]12C (stereo partly shown) [FSM-22745] | 16 (≈ 19 µM) | > 64 | 8 (≈ 9.49 µM) | 1 (≈ 1.19 µM) | 32 (≈ 38 µM) | 0.5 (≈ 0.593 µM) | > 64 | 32 (≈ 38 µM) | > 64 | 4 (≈ 4.75 µM) | 1 (≈ 1.19 µM) | > 64 | > 64 | 32 (≈ 38 µM) | 64 (≈ 75.9 µM) | > 64 | > 64 |
| CC[C@H]1OC(=O)[C@@](C)(F)C(=O)[C@H](C)[C@@H](O[C@@H]2OC(C)CC(N(C)C)C2O)[C@](C)(OC)C[C@@H](C)C(=O)[C@H](C)[C@H]2N(CC#CCn3cc(-c4cccc(F)n4)nn3)C(=O)O[C@]12C (stereo partly shown) [FSM-100627] | 4 (≈ 4.73 µM) | 32 (≈ 37.9 µM) | 2 (≈ 2.37 µM) | 0.06 (≈ 0.071 µM) | 8 (≈ 9.47 µM) | 0.06 (≈ 0.071 µM) | 32 (≈ 37.9 µM) | 16 (≈ 18.9 µM) | > 64 | 1 (≈ 1.18 µM) | 0.125 (≈ 0.148 µM) | > 64 | 64 (≈ 75.7 µM) | 8 (≈ 9.47 µM) | 32 (≈ 37.9 µM) | 64 (≈ 75.7 µM) | 64 (≈ 75.7 µM) |
| CC[C@H]1OC(=O)[C@@](C)(F)C(=O)[C@H](C)[C@@H](O[C@@H]2OC(C)CC(N(C)C)C2O)[C@](C)(OC)C[C@@H](C)C(=O)[C@H](C)[C@H]2N(CC#CCn3cc(-c4cc(N)ccn4)nn3)C(=O)O[C@]12C (stereo partly shown) [FSM-100593] | 2 (≈ 2.38 µM) | 16 (≈ 19 µM) | 1 (≈ 1.19 µM) | 0.125 (≈ 0.148 µM) | 8 (≈ 9.5 µM) | 0.125 (≈ 0.148 µM) | 64 (≈ 76 µM) | 4 (≈ 4.75 µM) | > 64 | 0.5 (≈ 0.594 µM) | 0.25 (≈ 0.297 µM) | > 64 | 32 (≈ 38 µM) | 8 (≈ 9.5 µM) | 8 (≈ 9.5 µM) | 32 (≈ 38 µM) | 32 (≈ 38 µM) |
| CC[C@H]1OC(=O)[C@@](C)(F)C(=O)[C@H](C)[C@@H](O[C@@H]2OC(C)CC(N(C)C)C2O)[C@](C)(OC)C[C@@H](C)C(=O)[C@H](C)[C@H]2N(CC#CCn3cc(-c4nccc(N)n4)nn3)C(=O)O[C@]12C (stereo partly shown) [FSM-22749] | 16 (≈ 19 µM) | > 64 | 16 (≈ 19 µM) | 2 (≈ 2.37 µM) | 64 (≈ 75.9 µM) | 2 (≈ 2.37 µM) | > 64 | 64 (≈ 75.9 µM) | > 64 | 8 (≈ 9.49 µM) | 2 (≈ 2.37 µM) | > 64 | > 64 | 32 (≈ 38 µM) | > 64 | > 64 | > 64 |
| CC[C@H]1OC(=O)[C@@](C)(F)C(=O)[C@H](C)[C@@H](O[C@@H]2OC(C)CC(N(C)C)C2O)[C@](C)(OC)C[C@@H](C)C(=O)[C@H](C)[C@H]2N(CC#CCn3cc(-c4cccnn4)nn3)C(=O)O[C@]12C (stereo partly shown) [FSM-130217] | 16 (≈ 19.3 µM) | > 64 | 8 (≈ 9.66 µM) | 0.25 (≈ 0.302 µM) | 32 (≈ 38.6 µM) | 0.25 (≈ 0.302 µM) | > 64 | 32 (≈ 38.6 µM) | > 64 | 4 (≈ 4.83 µM) | 0.25 (≈ 0.302 µM) | > 64 | > 64 | 16 (≈ 19.3 µM) | 32 (≈ 38.6 µM) | > 64 | > 64 |
| CC[C@H]1OC(=O)[C@H](C)C(=O)[C@H](C)[C@@H](O[C@@H]2OC(C)CC(N(C)C)C2O)[C@](C)(OC)C[C@@H](C)C(=O)[C@H](C)[C@H]2N(CC#CCn3cc(-c4cccnn4)nn3)C(=O)O[C@]12C (stereo partly shown) [FSM-130216] | 16 (≈ 19.8 µM) | > 64 | 4 (≈ 4.94 µM) | 0.25 (≈ 0.309 µM) | 64 (≈ 79 µM) | 0.25 (≈ 0.309 µM) | > 64 | 32 (≈ 39.5 µM) | > 64 | 4 (≈ 4.94 µM) | 0.5 (≈ 0.617 µM) | > 64 | > 64 | 16 (≈ 19.8 µM) | 64 (≈ 79 µM) | > 64 | > 64 |
